# Test system: M17_3TAU(P301L) cells
# Test: Retinoic acid-induced cytotoxicity (LDH) in TAU-P301L expressing M17_3TAU(P301L) neuroblastoma cells
# Type: cell-based
# Conditions: Homo sapiens, Neuroblastoma cell, 168 h; toxicity inhibition (LDH) in M17_3TAU(P301L) cells challenged with retinoic acid, 7 days
# Excerpt: A TAU expression plasmid was constructed by sub-cloning the cDNA encoding for human TAU-P301L protein, wherein proline at position 301 was substituted by a leucine residue, into mammalian expression vector pcDNA3.1 resulting in the plasmid pcDNA3.1-TAUP301L. Plasmid pcDNA3.1-TAU P301L was transfected into human neuroblastoma cells (BE-M17; ATCC No. CRL-2267™) using lipofectamine reagent and subsequently, independent clonal cell lines with the plasmids stably integrated into the genome were selected by antibiotic resistance selection (Geneticin (G418)), resulting in cell line M17_3TAUP301L. Expression of the TAUP301L gene in the M17_3TAUP301L cells was confirmed by Western blot analysis.
# M17_3TAU(P301L) cells were treated chronically with retinoic acid (RA) in low serum conditions to induce Alzheimer's disease-like intracellular signaling deregulation leading to increased TAU levels and subsequent cell death. Cytotoxicity of cells was measured by quantification of lactate dehydrogenase (LDH) levels. In dead cells LDH leaked out of the cells into the medium due to a loss of plasma-membrane integrity.
# 3 days preceding the experiment, a pre-culture of M17_3TAU(P301L) cells was prepared, starting from a stock culture, at a density of 50.000-100.000 cells/cm^2 in culture medium (Optimem Reduced Serum with phenol red (Invitrogen, Cat. 31985-047)) supplemented with 10% fetal calf serum (FCS), 1 mM sodium pyruvate, 1×non-essential amino acids (NEAA), 500 μg/ml G418 and 0.5×(ABAM). At the day of the experiment these precultures were diluted to ˜0.1·10^6 cells/ml in detection medium (Optimem Reduced Serum without phenol red (Gibco, Cat.11058-021) supplemented with 1% fetal calf serum (FCS), 1 mM sodium pyruvate, 1×non-essential amino acids (NEAA), 500 μg/ml G418 and 0.5×ABAM) and 60 μL of this suspension was dispensed per well into a 96-well microtiter plate. After 3 hours of incubation at 37° C./5% CO2 an equal volume of detection medium (without FCS) containing 3.75 μM RA was added and subsequently incubated for 7 days at 37° C./5% CO2. Then LDH activity was determined using the Promega Cytotox 96 Non-Radioactive cytotoxicity assay (Cat. G1780), according to the manufacturer's instructions. Cytotoxicity was defined as the ratio of LDH relative the total LDH in the cells and supernatant.
# The assay described above using the M17_3TAU(P301L) cell line allowed to screen compounds for their ability to decrease cytotoxicity in RA-challenged cells. Compounds of the invention were tested for their ability to decrease toxicity at different concentrations, ranging from low non-effective concentrations to high potent concentrations. Afterwards, the dose-dependent inhibition curve was used to calculate their EC50. A compound was considered to be active in this test when it inhibited toxicity by more than 20% relative to untreated M17_3TAU(P301L) cells at a concentration of 10 μM or lower.
row,SMILES,EC50 [nM]
1,"Cc1cccc(CN2CCN(c3nc(Cc4cccc(F)c4)no3)CC2)c1 [Cmpd089, 1-[3-(3-Fluoro-benzyl)-[1,2,4]oxadiazol-5-yl]-4-(3-methyl-benzyl)-piperazine]",485
2,"CCOCCN1CCN(c2nc(Cc3ccc(Cl)cc3)no2)CC1 [Cmpd065, 1-[3-(4-Chloro-benzyl)-[1,2,4]oxadiazol-5-yl]-4-(2-ethoxy-ethyl)-piperazine]",763
3,"N#CCCCN1CCN(c2nc(Cc3ccc(Cl)cc3)no2)CC1 [Cmpd064, 4-{4-[3-(4-Chloro-benzyl)-[1,2,4]oxadiazol-5-yl]-piperazin-1-yl}-butyronitrile]",54
4,"CC(C)CCN1CCN(c2nc(-c3ccccc3)no2)CC1 [Cmpd006, 5-(4-Isopentylpiperazin-1-yl)-3-phenyl-1,2,4-oxadiazole]",8
5,"CCC(c1ccccc1)c1noc(N2CCN(CCc3cccc(OC)c3)CC2)n1 (stereo not drawn) [Cmpd049, 5-(4-(3-Methoxyphenethyl)piperazin-1-yl)-3-(1-phenylpropyl)-1,2,4-oxadiazole]",10
6,"Cc1ccccc1CN1CCN(c2nc(Cc3cccc(Cl)c3)no2)CC1 [Cmpd075, 1-[3-(3-Chloro-benzyl)-[1,2,4]oxadiazol-5-yl]-4-(2-methyl-benzyl)-piperazine]",238
7,"Clc1ccc(CCN2CCN(c3nc(-c4ccccc4)no3)CC2)cc1 [Cmpd003, 5-(4-(4-Chlorophenethyl)piperazin-1-yl)-3-phenyl-1,2,4-oxadiazole]",12
8,"Cc1ccc(-c2noc(N3CCN(Cc4ccccc4C)CC3)n2)cc1 [Cmpd010, 5-(4-(2-Methylbenzyl)piperazin-1-yl)-3-(p-tolyl)-1,2,4-oxadiazole]",306
9,"FC1(F)Oc2ccc(CN3CCN(c4nc(C5(c6ccccc6)CC5)no4)CC3)cc2O1 [Cmpd128, 5-(4-((2,2-Difluorobenzo[d][1,3]dioxol-5-yl)methyl)piperazin-1-yl)-3-(1-phenylcyclopropyl)-1,2,4-oxadiazole]",617
10,"c1ccc(Cc2noc(N3CCN(Cc4ccc5c(c4)OCO5)CC3)n2)cc1 [Cmpd040, 1-Benzo[1,3]dioxol-5-ylmethyl-4-(3-benzyl-[1,2,4]oxadiazol-5-yl)-piperazine]",64
11,"COc1cccc(CCN2CCN(c3nc(C(F)(F)c4ccc(F)cc4)no3)CC2)c1 [Cmpd150, 3-(Difluoro(4-fluorophenyl)methyl)-5-(4-(3-methoxyphenethyl)piperazin-1-yl)-1,2,4-oxadiazole]",199
12,"COc1cccc(CCN2CCN(c3nc(Cc4cccc(F)c4)no3)CC2)c1 [Cmpd090, 1-[3-(3-Fluoro-benzyl)-[1,2,4]oxadiazol-5-yl]-4-[2-(3-methoxy-phenyl)-ethyl]-piperazine]",37
13,"CC(C)CCN1CCN(c2nc(CCC(F)(F)F)no2)CC1 [Cmpd179, 5-(4-Isopentylpiperazin-1-yl)-3-(3,3,3-trifluoropropyl)-1,2,4-oxadiazole]",46
14,"COc1cc(CCN2CCN(c3nc(CCC(F)(F)F)no3)CC2)ccn1 [Cmpd175, 5-(4-(2-(2-Methoxypyridin-4-yl)ethyl)piperazin-1-yl)-3-(3,3,3-trifluoropropyl)-1,2,4-oxadiazole]",105
15,"Clc1ccc(Cc2noc(N3CCN(CC4CCOCC4)CC3)n2)cc1 [Cmpd069, 3-(4-Chlorobenzyl)-5-(4-((tetrahydro-2H-pyran-4-yl)methyl)piperazin-1-yl)-1,2,4-oxadiazole]",161
16,"Fc1ccc(Cc2noc(N3CCN(Cc4ccc(Cl)cc4)CC3)n2)cc1F [Cmpd097, 1-(4-Chloro-benzyl)-4-[3-(3,4-difluoro-benzyl)-[1,2,4]oxadiazol-5-yl]-piperazine]",486
17,"Cc1ccc(-c2noc(N3CCN(Cc4ccc5c(c4)OCO5)CC3)n2)cc1 [Cmpd007, 5-(4-(Benzo[d][1,3]dioxol-5-ylmethyl)piperazin-1-yl)-3-(p-tolyl)-1,2,4-oxadiazole]",352
18,"COc1cccc(CCN2CCN(c3nc(C(C)(C)c4ccc(F)cc4)no3)CC2)c1 [Cmpd118, 3-(2-(4-Fluorophenyl)propan-2-yl)-5-(4-(3-methoxyphenethyl)piperazin-1-yl)-1,2,4-oxadiazole]",105

row,SMILES,EC50 [nM]
1,"Clc1ccc(Cc2noc(N3CCN(Cc4ccccc4Cl)CC3)n2)cc1 [Cmpd062, 1-(2-Chloro-benzyl)-4-[3-(4-chloro-benzyl)-[1,2,4]oxadiazol-5-yl]-piperazine]",2
2,"COc1ccc(CCN2CCN(c3nc(Cc4ccc(Cl)cc4)no3)CC2)cn1 [Cmpd060, 1-[3-(4-Chloro-benzyl)-[1,2,4]oxadiazol-5-yl]-4-[2-(6-methoxy-pyridin-3-yl)-ethyl]-piperazine]",74
3,"CC(C)CCN1CCN(c2nc(Cc3ccc(Cl)cc3)no2)CC1 [Cmpd067, 3-(4-Chlorobenzyl)-5-(4-isopentylpiperazin-1-yl)-1,2,4-oxadiazole]",22
4,"Cc1ccc(CN2CCN(c3nc(C4(c5ccccc5)CC4)no3)CC2)cc1 [Cmpd130, 5-(4-(4-Methylbenzyl)piperazin-1-yl)-3-(1-phenylcyclopropyl)-1,2,4-oxadiazole]",185
5,"Cc1ccc(-c2noc(N3CCN(Cc4ccc(Cl)cc4)CC3)n2)cc1 [Cmpd008, 5-(4-(4-Chlorobenzyl)piperazin-1-yl)-3-(p-tolyl)-1,2,4-oxadiazole]",182
6,"Clc1cccc(-c2noc(N3CCN(Cc4ccccc4Cl)CC3)n2)c1 [Cmpd027, 5-(4-(2-Chlorobenzyl)piperazin-1-yl)-3-(3-chlorophenyl)-1,2,4-oxadiazole]",74
7,"Clc1ccc(-c2noc(N3CCN(CCc4ccccc4)CC3)n2)cc1 [Cmpd020, 3-(4-Chlorophenyl)-5-(4-phenethylpiperazin-1-yl)-1,2,4-oxadiazole]",10
8,"CC(C)N1CCN(c2nc(Cc3ccc(Cl)cc3)no2)CC1 [Cmpd071, 3-(4-Chlorobenzyl)-5-(4-isopropylpiperazin-1-yl)-1,2,4-oxadiazole]",133
9,"Cc1ccc(CN2CCN(c3nc(Cc4ccc(Cl)cc4)no3)CC2)cc1 [Cmpd063, 1-[3-(4-Chloro-benzyl)-[1,2,4]oxadiazol-5-yl]-4-(4-methyl-benzyl)-piperazine]",174
10,"Fc1cccc(-c2noc(N3CCN(Cc4ccccc4Cl)CC3)n2)c1 [Cmpd029, 5-(4-(2-Chlorobenzyl)piperazin-1-yl)-3-(3-fluorophenyl)-1,2,4-oxadiazole]",97
11,"CC(C)CCN1CCN(c2nc(C3C[C@@H]4CC[C@H]3C4)no2)CC1 (stereo partly drawn) [Cmpd189, 3-((1S,4R)-bicyclo[2.2.1]heptan-2-yl)-5-(4-isopentylpiperazin-1-yl)-1,2,4-oxadiazole]",3
12,"Fc1ccc(-c2noc(N3CCN(Cc4ccccc4Cl)CC3)n2)cc1F [Cmpd035, 5-(4-(2-Chlorobenzyl)piperazin-1-yl)-3-(3,4-difluorophenyl)-1,2,4-oxadiazole]",24
13,"COc1cccc(CCN2CCN(c3nc(C4(c5ccccc5)CC4)no3)CC2)c1 [Cmpd125, 5-(4-(3-Methoxyphenethyl)piperazin-1-yl)-3-(1-phenylcyclopropyl)-1,2,4-oxadiazole]",103
14,"Clc1ccc(CCN2CCN(c3nc(C4C[C@@H]5CC[C@H]4C5)no3)CC2)cc1 (stereo partly drawn) [Cmpd186, 3-((1S,4R)-bicyclo[2.2.1]heptan-2-yl)-5-(4-(4-chlorophenethyl)piperazin-1-yl)-1,2,4-oxadiazole]",17
15,"Cc1ccccc1CN1CCN(c2nc(-c3cccc(Cl)c3)no2)CC1 [Cmpd026, 3-(3-Chlorophenyl)-5-(4-(2-methylbenzyl)piperazin-1-yl)-1,2,4-oxadiazole]",88
16,"Cc1ccc(CN2CCN(c3nc(-c4cccc(F)c4)no3)CC2)cc1 [Cmpd030, 3-(3-Fluorophenyl)-5-(4-(4-methylbenzyl)piperazin-1-yl)-1,2,4-oxadiazole]",13
17,"Clc1ccc(CCN2CCN(c3nc(C4(c5ccccc5)CC4)no3)CC2)cc1 [Cmpd127, 5-(4-(4-Chlorophenethyl)piperazin-1-yl)-3-(1-phenylcyclopropyl)-1,2,4-oxadiazole]",59
18,"COc1cc(CCN2CCN(c3nc(-c4cccc(Cl)c4)no3)CC2)ccn1 [Cmpd025, 3-(3-Chlorophenyl)-5-(4-(2-(2-methoxypyridin-4-yl)ethyl)piperazin-1-yl)-1,2,4-oxadiazole]",14
